Where a SMILES comes first, the peptide text is derived from it. Bridges are numbered along the chain shown (N, C = ends). [ ]: non-standard residue; d: D form. 2Nal = N[C@@H](Cc1ccc2ccccc2c1)C(=O)O; Tic = O=C(O)[C@@H]1Cc2ccccc2CN1
Biological target: T1, P-selectin (Homo sapiens, UniProt P16109)
T1 construct: P-selectin is isolated from human platelet lysates; from tissue; host or cells: human platelets (outdated platelet packs from a blood bank)
T1 sequence (P16109 42-830): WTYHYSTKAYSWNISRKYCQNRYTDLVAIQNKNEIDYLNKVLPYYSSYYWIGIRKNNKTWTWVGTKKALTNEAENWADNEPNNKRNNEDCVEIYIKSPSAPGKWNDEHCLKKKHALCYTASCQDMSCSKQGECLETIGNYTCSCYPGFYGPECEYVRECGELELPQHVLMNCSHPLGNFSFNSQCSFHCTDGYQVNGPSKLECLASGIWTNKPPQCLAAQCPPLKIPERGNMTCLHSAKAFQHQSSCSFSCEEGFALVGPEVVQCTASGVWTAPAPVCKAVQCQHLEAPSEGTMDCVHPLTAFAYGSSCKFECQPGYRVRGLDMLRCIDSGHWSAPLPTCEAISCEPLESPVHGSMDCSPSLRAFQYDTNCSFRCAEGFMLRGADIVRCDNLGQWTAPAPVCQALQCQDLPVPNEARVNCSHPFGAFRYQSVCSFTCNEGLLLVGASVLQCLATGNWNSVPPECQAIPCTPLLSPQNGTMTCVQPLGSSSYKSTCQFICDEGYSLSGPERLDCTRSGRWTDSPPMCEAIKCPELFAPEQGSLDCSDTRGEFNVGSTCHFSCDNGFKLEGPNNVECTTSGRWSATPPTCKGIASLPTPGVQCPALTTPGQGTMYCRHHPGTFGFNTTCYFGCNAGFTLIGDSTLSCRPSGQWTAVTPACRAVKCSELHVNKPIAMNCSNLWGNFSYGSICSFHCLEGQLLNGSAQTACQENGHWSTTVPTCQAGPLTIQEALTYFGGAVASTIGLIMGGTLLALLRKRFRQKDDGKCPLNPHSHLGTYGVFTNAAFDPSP
Test: Inhibition of human neutrophil adhesion to purified P-selectin immobilized on plastic wells
Format: cell-based
Settings: inhibiting the binding of human neutrophils to P-selectin
Procedure, shortened: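 Isolated human neutrophils (2×10^5 per well) in HBSS with Ca2+/Mg2+ and HSA added to wells coated overnight at 4° C with platelet-derived P-selectin (5 micrograms/mL), HSA-blocked; 20 min at 22° C. Nonadherent cells removed by inverted centrifugation at 150 g; adherent cells quantified by myeloperoxidase activity.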

SMILES	IC50
CC(C)[C@@H](NC(=O)[C@@H](Cc1c[nH]c2ccccc12)NC(=O)[C@H](NC(=O)[C@@H](Cc1c[nH]c2ccccc12)NC(=O)[C@H]1CSSC[C@@H](NC(=O)[C@@H](CCCCN)NC(=O)[C@H](N)CCCNC(=N)N)C(=O)NCC(=O)N[C@@H](Cc2ccc3ccccc3c2)C(=O)N1)[C@H](C)O)C(N)=O [(73)] (H-[dR][dK][dC]G[2Nal][dC][dW][dT][dW][dV]-NH2; disulfide 3-6)	3.2 µM
CC(C)[C@H](NC(=O)[C@H]1CSSC[C@@H](NC(=O)[C@@H](CCCCN)NC(=O)[C@H](N)CCCNC(=N)N)C(=O)NCC(=O)N[C@@H](Cc2ccccc2)C(=O)N1)C(=O)N[C@H](Cc1c[nH]c2ccccc12)C(=O)N[C@@H](C(=O)N[C@H](Cc1c[nH]c2ccccc12)C(N)=O)[C@H](C)O [(75)] (H-[dR][dK][dC]GF[dC]V[dW][dT][dW]-NH2; disulfide 3-6)	6 µM
CC(C)[C@@H](NC(=O)[C@H]1CCCN1C(=O)[C@H](NC(=O)[C@@H](Cc1c[nH]c2ccccc12)NC(=O)[C@H]1CSSC[C@@H](NC(=O)[C@@H](CCCCN)NC(=O)[C@H](N)CCCNC(=N)N)C(=O)NCC(=O)N[C@@H](Cc2ccccc2)C(=O)N1)[C@H](C)O)C(N)=O [(77)] (H-[dR][dK][dC]GF[dC][dW][dT][dP][dV]-NH2; disulfide 3-6)	2270 µM
CC(C)[C@@H](NC(=O)[C@@H](Cc1ccc2ccccc2c1)NC(=O)[C@H](NC(=O)[C@@H](Cc1c[nH]c2ccccc12)NC(=O)[C@H]1CSC[C@@H](NC(=O)[C@@H](CCCCN)NC(=O)[C@H](N)CCCNC(=N)N)C(=O)NCC(=O)N[C@@H](Cc2ccccc2)C(=O)N1)[C@H](C)O)C(N)=O [(78)]	50.7 µM
CC(C)[C@@H](NC(=O)[C@@H](Cc1c[nH]c2ccccc12)NC(=O)[C@H](NC(=O)[C@@H](Cc1c[nH]c2ccccc12)NC(=O)[C@H]1CSC[C@@H](NC(=O)[C@@H](CCCCN)NC(=O)[C@H](N)CCCNC(=N)N)C(=O)NCC(=O)N[C@@H](Cc2ccccc2)C(=O)N1)[C@H](C)O)C(N)=O [(81)]	10.6 µM
CC(C)[C@@H](NC(=O)[C@@H](Cc1c[nH]c2ccccc12)NC(=O)[C@H](NC(=O)[C@@H]1CCCN1C(=O)[C@H]1CSSC[C@@H](NC(=O)[C@@H](CCCCN)NC(=O)[C@H](N)CCCNC(=N)N)C(=O)NCC(=O)N[C@@H](Cc2ccccc2)C(=O)N1)[C@H](C)O)C(N)=O [(82)] (H-[dR][dK][dC]GF[dC]P[dT][dW][dV]-NH2; disulfide 3-6)	547 µM
CC(C)[C@@H](NC(=O)[C@@H](Cc1c[nH]c2ccccc12)NC(=O)[C@H](NC(=O)[C@@H](Cc1c[nH]c2ccccc12)NC(=O)[C@H]1CSSC[C@@H](NC(=O)[C@@H](CCCCN)NC(=O)[C@H](N)CCCNC(=N)N)C(=O)N2CCC[C@H]2C(=O)NCC(=O)N1)[C@H](C)O)C(N)=O [(83)] (H-[dR][dK][dC]PG[dC][dW][dT][dW][dV]-NH2; disulfide 3-6)	983 µM
CC(C)[C@@H](NC(=O)[C@@H](Cc1c[nH]c2ccccc12)NC(=O)[C@H](NC(=O)[C@@H](Cc1c[nH]c2ccccc12)NC(=O)[C@H]1CSSC[C@@H](NC(=O)[C@@H](CCCCN)NC(=O)[C@H](N)CCCNC(=N)N)C(=O)NCC(=O)N2Cc3ccccc3C[C@H]2C(=O)N1)[C@H](C)O)C(N)=O [(86)] (H-[dR][dK][dC]G[Tic][dC][dW][dT][dW][dV]-NH2; disulfide 3-6)	83.4 µM
CC(C)[C@@H](NC(=O)[C@@H](Cc1c[nH]c2ccccc12)NC(=O)[C@H](NC(=O)[C@@H](Cc1c[nH]c2ccccc12)NC(=O)[C@H]1CSSC[C@@H](NC(=O)[C@@H](CCCCN)NC(=O)[C@H](N)CCCNC(=N)N)C(=O)NCC(=O)N[C@@H](Cc2ccc(O)cc2)C(=O)N1)[C@H](C)O)C(N)=O [(87)] (H-[dR][dK][dC]GY[dC][dW][dT][dW][dV]-NH2; disulfide 3-6)	5.7 µM
CC(C)[C@@H](NC(=O)[C@@H](Cc1c[nH]c2ccccc12)NC(=O)[C@H](NC(=O)[C@@H](Cc1c[nH]c2ccccc12)NC(=O)[C@@H]1CSSC[C@@H](NC(=O)[C@@H](CCCCN)NC(=O)[C@H](N)CCCNC(=N)N)C(=O)NCC(=O)N[C@@H](Cc2ccccc2)C(=O)N1)[C@H](C)O)C(N)=O [(91)] (H-[dR][dK][dC]GFC[dW][dT][dW][dV]-NH2; disulfide 3-6)	42.7 µM

Second part, the compound after the results:

IC50	SMILES
26.8 µM	CC[C@H](C)[C@@H]1NC(=O)[C@H](NC(=O)[C@@H](CCCCN)NC(=O)[C@H](N)CCCNC(=N)N)CSSC[C@H](C(=O)N[C@H](Cc2c[nH]c3ccccc23)C(=O)N[C@@H](C(=O)N[C@H](Cc2c[nH]c3ccccc23)C(=O)N[C@@H](C(N)=O)C(C)C)[C@H](C)O)NC(=O)[C@@H]2CCCN2C1=O [(95)] (H-[dR][dK][dC]IP[dC][dW][dT][dW][dV]-NH2; disulfide 3-6)
26.7 µM	CC(C)[C@@H](NC(=O)[C@H](Cc1c[nH]c2ccccc12)NC(=O)[C@H](NC(=O)[C@@H](Cc1c[nH]c2ccccc12)NC(=O)[C@H]1CSSC[C@@H](NC(=O)[C@@H](CCCCN)NC(=O)[C@H](N)CCCNC(=N)N)C(=O)NCC(=O)N[C@@H](Cc2ccccc2)C(=O)N1)[C@H](C)O)C(N)=O [(96)] (H-[dR][dK][dC]GF[dC][dW][dT]W[dV]-NH2; disulfide 3-6)
28.7 µM	CC(C)[C@@H](NC(=O)[C@@H](Cc1c[nH]c2ccccc12)NC(=O)[C@@H](NC(=O)[C@@H](Cc1c[nH]c2ccccc12)NC(=O)[C@H]1CSSC[C@@H](NC(=O)[C@@H](CCCCN)NC(=O)[C@H](N)CCCNC(=N)N)C(=O)NCC(=O)N[C@@H](Cc2ccccc2)C(=O)N1)[C@@H](C)O)C(N)=O [(98)] (H-[dR][dK][dC]GF[dC][dW]T[dW][dV]-NH2; disulfide 3-6)
3.1 µM	CC(C)[C@@H](NC(=O)[C@@H](Cc1c[nH]c2ccccc12)NC(=O)[C@H](NC(=O)[C@H](Cc1c[nH]c2ccccc12)NC(=O)[C@H]1CSSC[C@@H](NC(=O)[C@@H](CCCCN)NC(=O)[C@H](N)CCCNC(=N)N)C(=O)NCC(=O)N[C@@H](Cc2ccccc2)C(=O)N1)[C@H](C)O)C(N)=O [(99)] (H-[dR][dK][dC]GF[dC]W[dT][dW][dV]-NH2; disulfide 3-6)
88.3 µM	CC(C)[C@@H](NC(=O)[C@@H](CCC(N)=O)NC(=O)[C@H](NC(=O)[C@@H](Cc1ccc(O)cc1)NC(=O)[C@H]1CSSC[C@@H](NC(=O)[C@@H](CCCCN)NC(=O)[C@H](N)CCCNC(=N)N)C(=O)NCC(=O)N[C@@H](Cc2ccccc2)C(=O)N1)[C@H](C)O)C(N)=O [(100)] (H-[dR][dK][dC]GF[dC][dY][dT][dQ][dV]-NH2; disulfide 3-6)
33.9 µM	CC(C)[C@@H](NC(=O)[C@@H](Cc1c[nH]c2ccccc12)NC(=O)[C@H](NC(=O)[C@@H](Cc1c[nH]c2ccccc12)NC(=O)[C@H]1CSSC[C@@H](NC(=O)[C@@H](CCCCN)NC(=O)[C@@H](N)CCCNC(=N)N)C(=O)NCC(=O)N[C@@H](Cc2ccccc2)C(=O)N1)[C@H](C)O)C(N)=O [(101)] (H-R[dK][dC]GF[dC][dW][dT][dW][dV]-NH2; disulfide 3-6)
191 µM	CC(=O)N[C@H](CCCCN)C(=O)N[C@@H]1CSSC[C@H](C(=O)N[C@H](Cc2c[nH]c3ccccc23)C(=O)N[C@@H](C(=O)N[C@H](Cc2c[nH]c3ccccc23)C(=O)N[C@@H](C(N)=O)C(C)C)[C@H](C)O)NC(=O)[C@H](Cc2ccc(O)cc2)NC(=O)CNC1=O [(104)] (Ac-[dK][dC]GY[dC][dW][dT][dW][dV]-NH2; disulfide 2-5)
97.8 µM	C[C@H](O)[C@H]1NC(=O)[C@@H](Cc2c[nH]c3ccccc23)NC(=O)[C@H]2CSSC[C@@H](NC(=O)[C@H](NC(=O)[C@H](N)CCCNC(=N)N)CCCCNC(=O)CC[C@H](C(N)=O)NC(=O)[C@@H](Cc3c[nH]c4ccccc34)NC1=O)C(=O)NCC(=O)N[C@@H](Cc1ccccc1)C(=O)N2 [(105)] (H-[dR][dK][dC]GF[dC][dW][dT][dW][dE]-NH2; lactam 2-10; disulfide 3-6; N-terminus assumed)
8 µM	CC(C)[C@@H](NC(=O)[C@@H](Cc1c[nH]c2ccccc12)NC(=O)[C@H]1CCC(=O)NCCCC[C@@H](NC(=O)[C@H](N)CCCNC(=N)N)C(=O)N[C@@H]2CSSC[C@@H](NC(=O)[C@H](Cc3ccccc3)NC(=O)CNC2=O)C(=O)N[C@H](Cc2c[nH]c3ccccc23)C(=O)N1)C(N)=O [(106)] (H-[dR][dK][dC]GF[dC][dW][dE][dW][dV]-NH2; lactam 2-8; disulfide 3-6; N-terminus assumed)
8 µM	CC[C@@H](C)[C@@H](NC(=O)[C@@H](CCCCN)NC(=O)[C@H](N)CCCNC(=N)N)C(=O)NCC(=O)N[C@@H]1CSSC[C@H](C(=O)N[C@H](Cc2c[nH]c3ccccc23)C(=O)N[C@@H](C(N)=O)C(C)C)NC(=O)[C@@H](Cc2c[nH]c3ccccc23)NC(=O)[C@@H]([C@H](C)CC)NC1=O [(107)] (H-[dR][dK][dI]G[dC][dI][dW][dC][dW][dV]-NH2; disulfide 5-8)
